Reference: patent publication US11873287B2, “Piperidine-2,6-dione derivatives and ulcerative colitis treating” (TIANJIN HEMAY PHARMACEUTICAL SCI-TECH CO., LTD, priority 2016, dated 2024)

How the values were obtained:
[1] = tested on: DSS-Induced inflammatory Bowel Disease Models in Mice; assay: DSS-induced inflammatory bowel disease model in mice (Biological Example 4, 1.3% DSS); assay type: in vivo, C57BL/6 mice; conditions: 30 mg/Kg i.g. Q.D; for Average Length of Colon (Mean ± SD) / Inhibitory Rate of Colonic Reduction: 1.3% DSS days 0-5
Experimental: 40 healthy female C57BL/6 mice having weight of 16-19 g were randomly divided into 4 groups in accordance with weight. There were 10 mice in each group (see Table 6 below). The first day of the experiment was recorded as Day 0. The administration regimen and induction regimen were detailed in Table 6. The change in weight of experimental animals was recorded every day. […] Samples of animal colonic tissues were obtained to measure the length. One-way ANOVA analysis of mice weights was performed by SPSS22. Statistical analyses between groups were performed. Mann-Whitney U non-parametric test was performed on the length of colon.
The experimental method used in the present biological example is identical to those in Biological Example 3.
Calculation Formula of Inhibitory Rate of Colonic Reduction: (Length of Colon in Administration Group−Length of Colon in Model Group)/(Length of Colon in Blank Group−Length of Colon in Model Group)

ICR mice = assay: Acute toxicity experiment of single oral administration in mice; assay type: in vivo; conditions: 1000 mg/Kg single oral dose
Experimental: The mice were fasted one day before the experiment. On the day of the experiment, 6 mice (ICR mice, body weight of 19-21 g, three females and three males) were selected in each experiment group. First of all, one female and one male were selected to orally give 1000 mg/Kg, and observed for 5-10 minutes. If there were no obvious side effects, the remaining 4 animals were orally given the same dose, and observed for 10-15 minutes. If no animal died, the animals were placed in a box to balancedly feed for 7 days. The state was observed and the body weight was recorded daily.
Observation Indexes within 0-15 Minutes After Administration
Activity: restlessness, hyperactivity
Nervous system response: tremor, spasm, convulsion, ataxia, posture abnormality, etc.
Autonomic nerve: exophthalmos, salivation, tears, urination (hematuria), diarrhea, piloerection, breathing, etc.
Observation Indexes Over 7 Days
State of Animal: lethargy, hyperactivity, excitement, hair loss, diarrhea, abnormal behavior, death, etc.

Row | SMILES | Average Length of Colon (Mean ± SD) [1] [cm] | Inhibitory Rate of Colonic Reduction [1] [%] | Weights of Experimental Mice (Mean ± SD) ([1]; Day 0) [g] | Weights of Experimental Mice (Mean ± SD) ([1]; Day 1) [g] | Weights of Experimental Mice (Mean ± SD) ([1]; Day 2) [g] | Weights of Experimental Mice (Mean ± SD) ([1]; Day 3) [g] | Weights of Experimental Mice (Mean ± SD) ([1]; Day 4) [g] | Weights of Experimental Mice (Mean ± SD) ([1]; Day 5) [g] | Weights of Experimental Mice (Mean ± SD) ([1]; Day 6) [g] | Weights of Experimental Mice (Mean ± SD) ([1]; Day 7) [g] | Weights of Experimental Mice (Mean ± SD) ([1]; Day 8) [g] | Weights of Experimental Mice (Mean ± SD) ([1]; Day 9) [g] | Daily Body Weight of Tested Female Mice (Mean ± SD) (ICR mice; Day 1) [g] | Daily Body Weight of Tested Male Mice (Mean ± SD) (ICR mice; Day 1) [g] | Daily Body Weight of Tested Female Mice (Mean ± SD) (ICR mice; Day 2) [g] | Daily Body Weight of Tested Male Mice (Mean ± SD) (ICR mice; Day 2) [g] | Daily Body Weight of Tested Female Mice (Mean ± SD) (ICR mice; Day 3) [g] | Daily Body Weight of Tested Male Mice (Mean ± SD) (ICR mice; Day 3) [g] | Daily Body Weight of Tested Female Mice (Mean ± SD) (ICR mice; Day 4) [g] | Daily Body Weight of Tested Male Mice (Mean ± SD) (ICR mice; Day 4) [g] | other results
1 | Nc1cccc2c1C(=O)N(C1CCC(=O)N(CCO)C1=O)C2=O (centres unmarked) [Example 6, 4-amino-2-(1-(2-hydroxyethyl)-2,6-dioxopiperidin-3-yl)isoindolin-1,3-dione] | 6.9 ± 0.3 | 66.7 | 19.8 ± 0.6 | 19.9 ± 0.7 | 19.7 ± 0.7 | 20.0 ± 0.6 | 20.0 ± 0.6 | 19.9 ± 0.7 | 19.5 ± 0.6 | 19.4 ± 0.8 | 19.5 ± 0.7 | 19.6 ± 1.1 | 17.5 ± 0.9 | 18.4 ± 0.6 | 21.5 ± 0.9 | 21.5 ± 0.9 | 21.6 ± 1.3 | 21.6 ± 1.3 | 22.0 ± 1.2 | 25.5 ± 0.5 | Daily Body Weight of Tested Female Mice (Mean ± SD) (ICR mice; Day 5): 22.3 ± 1.9 g; Daily Body Weight of Tested Male Mice (Mean ± SD) (ICR mice; Day 5): 25.9 ± 0.9 g; Daily Body Weight of Tested Female Mice (Mean ± SD) (ICR mice; Day 6): 22.4 ± 2.3 g; Daily Body Weight of Tested Male Mice (Mean ± SD) (ICR mice; Day 6): 26.9 ± 1.1 g; Daily Body Weight of Tested Female Mice (Mean ± SD) (ICR mice; Day 7): 22.9 ± 2.0 g; Daily Body Weight of Tested Male Mice (Mean ± SD) (ICR mice; Day 7): 27.1 ± 1.1 g; Summary of toxic response of tested animals in 7 Days (ICR mice; Female): Abnormality was not observed in 7 days of the test; Summary of toxic response of tested animals in 7 Days (ICR mice; Male): Abnormality was not observed in 7 days of the test
2 | CNc1cccc2c1C(=O)N(C1CCC(=O)N(CCOC)C1=O)C2=O (centres unmarked) [Example 2, 4-methylamino-2-(1-(2-methoxyethyl)-2,6-dioxopiperidin-3-yl)isoindolin-1,3-dione] | 6.9 ± 0.2 | 66.7 | 20.1 ± 0.8 | 20.0 ± 0.7 | 19.8 ± 0.6 | 20.2 ± 0.8 | 20.2 ± 0.8 | 20.0 ± 0.6 | 18.9 ± 0.6 | 18.8 ± 0.7 | 18.8 ± 1.0 | 19.0 ± 1.1 | 19.2 ± 0.5 | 18.6 ± 0.5 | 22.7 ± 0.6 | 24.1 ± 0.4 | 23.2 ± 0.5 | 24.7 ± 0.2 | 23.2 ± 0.5 | 24.7 ± 0.2 | Daily Body Weight of Tested Female Mice (Mean ± SD) (ICR mice; Day 5): 24.4 ± 0.2 g; Daily Body Weight of Tested Male Mice (Mean ± SD) (ICR mice; Day 5): 26.2 ± 0.6 g; Daily Body Weight of Tested Female Mice (Mean ± SD) (ICR mice; Day 6): 24.6 ± 1.1 g; Daily Body Weight of Tested Male Mice (Mean ± SD) (ICR mice; Day 6): 28.8 ± 0.5 g; Daily Body Weight of Tested Female Mice (Mean ± SD) (ICR mice; Day 7): 24.5 ± 1.9 g; Daily Body Weight of Tested Male Mice (Mean ± SD) (ICR mice; Day 7): 29.2 ± 0.8 g; Summary of toxic response of tested animals in 7 Days (ICR mice; Female): Abnormality was not observed in 7 days of the test; Summary of toxic response of tested animals in 7 Days (ICR mice; Male): Slight abnormality of activity was occasionally observed in two
